biological target: T1, CLK3A (Homo sapiens, UniProt P49761); test: DSF Tm panel; assay type: binding; details: 10 μM compound
T1 construct: purchased in-house DSF kinase panel (SGC-style construct names; the trailing letter is the construct ID)
Procedure: (§1) The synthesized urea-based derivatives were evaluated in a panel of kinases by differential scanning fluorescence (DSF) to investigate their selectivity profile. A positive ΔT m in the DSF assay indicates stabilization of the protein upon ligand binding in comparison to its apo state, with higher thermal shifts generally correlating with stronger binding. For this purpose, we used our internal kinase selectivity panel (∼90 kinases) along with staurosporine as a positive control. […] This was also reflected in the overall low selectivity score (S) throughout the series, which is determined by the ratio between the number of kinases that are stabilized above 5 °C and the total number of kinases tested (Figure ). Motivated by these findings, we further validated the entire series by orthogonal binding and activity assays to determine the in vitro and cellular potency and selectivity of the developed series in comparison to the selected reference compounds. […]
(§2) was performed as previously described.[1,2] Briefly, recombinant protein kinase domains at a concentration of 2 μM were mixed with 10 μM compound in a buffer containing 20 mM HEPES, […]
(§3) probe (1 µl per mL). Subsequently, temperature-dependent protein unfolding profiles were […]
(§4) emission filters were set to 465 nm and 590 nm, respectively. The temperature was raised with a step rate of 3 °C per minute. […]
(§5) inflection point of the transition curve. […]
(§6) previously.[3] In brief, STK10, STK3, STK4 and SLK were obtained as plasmids cloned in […]
(§7) Plasmids were transfected into
(§8) KD concentration taken from TracerDB (tracerdb.org)[4] were pipetted into white 384-well

T1 sequence (P49761 127-484): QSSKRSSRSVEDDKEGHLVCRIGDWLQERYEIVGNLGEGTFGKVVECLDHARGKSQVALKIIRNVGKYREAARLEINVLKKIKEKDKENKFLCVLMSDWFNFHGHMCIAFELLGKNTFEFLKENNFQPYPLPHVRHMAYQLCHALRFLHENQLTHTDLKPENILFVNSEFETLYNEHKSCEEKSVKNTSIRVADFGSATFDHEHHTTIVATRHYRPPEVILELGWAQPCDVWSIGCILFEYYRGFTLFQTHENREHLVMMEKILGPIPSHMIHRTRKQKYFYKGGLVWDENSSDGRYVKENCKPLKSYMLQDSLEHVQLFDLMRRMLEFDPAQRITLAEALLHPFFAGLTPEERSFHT

Compared with `Cc1cc(Br)ccc1CNC(=O)Nc1ccc2cc1OCCOCCNc1ccn3ncc-2c3n1` [compound 24], `Cc1ccc(F)cc1CNC(=O)Nc1ccc2cc1OCCOCCNc1ccn3ncc-2c3n1` [compound 26] is lower in ΔTm at 10 µM: 0.2 °C for the first, 0.1 °C for the second.

With `O=C(NCc1ccccc1C(F)(F)F)Nc1ccc2cc1OCCOCCNc1ccn3ncc-2c3n1` [compound 27] the ΔTm at 10 µM was 0.2 °C.

biological target: T2, ULK1A (Homo sapiens, UniProt O75385); test: DSF Tm panel; assay type: binding; details: 10 μM compound
T2 construct: purchased in-house DSF kinase panel (SGC-style construct names; the trailing letter is the construct ID)
T2 sequence (O75385 1-283): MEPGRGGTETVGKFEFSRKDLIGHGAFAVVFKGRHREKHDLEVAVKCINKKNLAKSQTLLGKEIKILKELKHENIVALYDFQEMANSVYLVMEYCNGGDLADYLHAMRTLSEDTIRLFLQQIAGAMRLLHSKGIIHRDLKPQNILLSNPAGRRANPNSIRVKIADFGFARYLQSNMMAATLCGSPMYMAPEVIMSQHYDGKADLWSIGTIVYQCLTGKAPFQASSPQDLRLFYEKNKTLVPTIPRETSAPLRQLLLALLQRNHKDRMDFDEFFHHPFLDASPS
Procedure: as §1, §2, §3, §4, §5, §6, §7, §8

Compared with `Cc1cc(Br)ccc1CNC(=O)Nc1ccc2cc1OCCOCCNc1ccn3ncc-2c3n1` [compound 24], `Cc1ccc(F)cc1CNC(=O)Nc1ccc2cc1OCCOCCNc1ccn3ncc-2c3n1` [compound 26] is higher in ΔTm at 10 µM: 0 °C for the first, 0.1 °C for the second.

`O=C(NCc1ccccc1C(F)(F)F)Nc1ccc2cc1OCCOCCNc1ccn3ncc-2c3n1` [compound 27] was tested, and the ΔTm at 10 µM was 0.4 °C.

biological target: T3, CHEK2A (Homo sapiens, UniProt O96017); test: DSF Tm panel; assay type: binding; details: 10 μM compound
T3 construct: purchased in-house DSF kinase panel (SGC-style construct names; the trailing letter is the construct ID)
Procedure: as §1, §2, §3, §4, §5, §6, §7, §8

T3 sequence (O96017 210-531): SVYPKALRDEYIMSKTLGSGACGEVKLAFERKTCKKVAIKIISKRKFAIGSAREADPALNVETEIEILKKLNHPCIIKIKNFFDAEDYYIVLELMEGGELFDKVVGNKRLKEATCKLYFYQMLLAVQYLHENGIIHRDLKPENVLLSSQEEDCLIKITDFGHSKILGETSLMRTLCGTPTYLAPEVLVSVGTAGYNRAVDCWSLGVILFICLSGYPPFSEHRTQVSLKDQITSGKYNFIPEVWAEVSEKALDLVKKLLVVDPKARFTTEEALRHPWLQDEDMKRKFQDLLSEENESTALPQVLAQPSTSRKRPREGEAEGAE

Going from `Cc1cc(Br)ccc1CNC(=O)Nc1ccc2cc1OCCOCCNc1ccn3ncc-2c3n1` [compound 24] to `Cc1ccc(F)cc1CNC(=O)Nc1ccc2cc1OCCOCCNc1ccn3ncc-2c3n1` [compound 26], the ΔTm at 10 µM falls from 8.6 °C to 7.2 °C.

Work on `O=C(NCc1ccccc1C(F)(F)F)Nc1ccc2cc1OCCOCCNc1ccn3ncc-2c3n1` [compound 27] yielded a ΔTm at 10 µM of 9.9 °C.

biological target: T4, CAMK4A (Homo sapiens, UniProt Q16566); test: DSF Tm panel; assay type: binding; details: 10 μM compound
T4 construct: purchased in-house DSF kinase panel (SGC-style construct names; the trailing letter is the construct ID)
T4 sequence (Q16566 1-473): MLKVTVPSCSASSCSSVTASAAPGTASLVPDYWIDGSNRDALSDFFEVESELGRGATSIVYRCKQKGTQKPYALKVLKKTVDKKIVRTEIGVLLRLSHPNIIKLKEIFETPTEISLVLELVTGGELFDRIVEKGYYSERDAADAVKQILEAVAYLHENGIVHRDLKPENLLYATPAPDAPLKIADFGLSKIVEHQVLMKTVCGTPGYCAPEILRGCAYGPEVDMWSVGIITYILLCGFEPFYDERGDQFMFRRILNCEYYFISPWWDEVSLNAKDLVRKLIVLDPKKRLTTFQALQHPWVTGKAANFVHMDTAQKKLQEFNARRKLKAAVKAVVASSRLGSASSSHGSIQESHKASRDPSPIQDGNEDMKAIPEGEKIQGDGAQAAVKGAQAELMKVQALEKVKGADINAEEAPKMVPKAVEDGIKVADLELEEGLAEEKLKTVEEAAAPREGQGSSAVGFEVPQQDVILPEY
Procedure: as §1, §2, §3, §4, §5, §6, §7, §8

`Cc1cc(Br)ccc1CNC(=O)Nc1ccc2cc1OCCOCCNc1ccn3ncc-2c3n1` [compound 24] and `Cc1ccc(F)cc1CNC(=O)Nc1ccc2cc1OCCOCCNc1ccn3ncc-2c3n1` [compound 26] are the same in ΔTm at 10 µM: 0.8 °C for the first, 0.8 °C for the second.

For `O=C(NCc1ccccc1C(F)(F)F)Nc1ccc2cc1OCCOCCNc1ccn3ncc-2c3n1` [compound 27], the ΔTm at 10 µM was 1.2 °C.

biological target: T5, PLK4A (Homo sapiens, UniProt O00444); test: DSF Tm panel; assay type: binding; details: 10 μM compound
T5 construct: purchased in-house DSF kinase panel (SGC-style construct names; the trailing letter is the construct ID)
T5 sequence (O00444 2-275): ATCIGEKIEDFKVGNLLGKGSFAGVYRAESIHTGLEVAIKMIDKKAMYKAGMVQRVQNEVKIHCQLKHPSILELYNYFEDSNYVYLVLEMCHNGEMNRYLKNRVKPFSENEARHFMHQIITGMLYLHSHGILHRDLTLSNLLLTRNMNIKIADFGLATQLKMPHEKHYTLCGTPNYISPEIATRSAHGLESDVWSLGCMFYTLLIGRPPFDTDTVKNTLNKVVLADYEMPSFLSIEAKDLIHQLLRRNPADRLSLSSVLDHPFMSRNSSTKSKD
Procedure: as §1, §2, §3, §4, §5, §6, §7, §8

Going from `Cc1cc(Br)ccc1CNC(=O)Nc1ccc2cc1OCCOCCNc1ccn3ncc-2c3n1` [compound 24] to `Cc1ccc(F)cc1CNC(=O)Nc1ccc2cc1OCCOCCNc1ccn3ncc-2c3n1` [compound 26], the ΔTm at 10 µM rises from 2.3 °C to 3.3 °C.

Work on `O=C(NCc1ccccc1C(F)(F)F)Nc1ccc2cc1OCCOCCNc1ccn3ncc-2c3n1` [compound 27] yielded a ΔTm at 10 µM of 3.9 °C.

biological target: T6, PAK4A (Homo sapiens, UniProt O96013); test: DSF Tm panel; assay type: binding; details: 10 μM compound
T6 construct: purchased in-house DSF kinase panel (SGC-style construct names; the trailing letter is the construct ID)
Procedure: as §1, §2, §3, §4, §5, §6, §7, §8

T6 sequence (O96013 291-591): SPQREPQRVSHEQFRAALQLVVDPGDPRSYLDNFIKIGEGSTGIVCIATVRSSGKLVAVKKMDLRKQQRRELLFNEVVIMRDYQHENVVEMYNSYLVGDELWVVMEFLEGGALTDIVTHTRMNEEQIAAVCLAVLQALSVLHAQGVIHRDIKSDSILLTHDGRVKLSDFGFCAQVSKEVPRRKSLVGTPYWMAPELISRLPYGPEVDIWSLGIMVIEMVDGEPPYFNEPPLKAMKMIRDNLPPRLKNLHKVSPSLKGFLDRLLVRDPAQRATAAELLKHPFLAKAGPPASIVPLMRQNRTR

Going from `Cc1cc(Br)ccc1CNC(=O)Nc1ccc2cc1OCCOCCNc1ccn3ncc-2c3n1` [compound 24] to `Cc1ccc(F)cc1CNC(=O)Nc1ccc2cc1OCCOCCNc1ccn3ncc-2c3n1` [compound 26], the ΔTm at 10 µM falls from 1.9 °C to 1.8 °C.

`O=C(NCc1ccccc1C(F)(F)F)Nc1ccc2cc1OCCOCCNc1ccn3ncc-2c3n1` [compound 27] was tested, and the ΔTm at 10 µM was 2.1 °C.

biological target: T7, MAP2K4A (Homo sapiens, UniProt P45985); test: DSF Tm panel; assay type: binding; details: 10 μM compound
T7 construct: purchased in-house DSF kinase panel (SGC-style construct names; the trailing letter is the construct ID)
T7 sequence (P45985 102-367): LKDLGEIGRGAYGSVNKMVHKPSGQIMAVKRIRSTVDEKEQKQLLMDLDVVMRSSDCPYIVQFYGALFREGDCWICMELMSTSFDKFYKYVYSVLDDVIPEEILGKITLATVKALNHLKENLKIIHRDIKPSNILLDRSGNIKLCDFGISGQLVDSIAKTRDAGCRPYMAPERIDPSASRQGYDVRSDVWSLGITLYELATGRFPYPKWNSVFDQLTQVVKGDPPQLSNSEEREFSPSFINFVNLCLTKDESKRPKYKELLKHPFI
Procedure: as §1, §2, §3, §4, §5, §6, §7, §8

`Cc1cc(Br)ccc1CNC(=O)Nc1ccc2cc1OCCOCCNc1ccn3ncc-2c3n1` [compound 24] and `Cc1ccc(F)cc1CNC(=O)Nc1ccc2cc1OCCOCCNc1ccn3ncc-2c3n1` [compound 26] are the same in ΔTm at 10 µM: 3.2 °C for the first, 3.2 °C for the second.

With `O=C(NCc1ccccc1C(F)(F)F)Nc1ccc2cc1OCCOCCNc1ccn3ncc-2c3n1` [compound 27] the ΔTm at 10 µM was 5.1 °C.

biological target: T8, STK17AA (Homo sapiens, UniProt Q9UEE5); test: DSF Tm panel; assay type: binding; details: 10 μM compound
T8 construct: purchased in-house DSF kinase panel (SGC-style construct names; the trailing letter is the construct ID)
T8 sequence (Q9UEE5 61-321): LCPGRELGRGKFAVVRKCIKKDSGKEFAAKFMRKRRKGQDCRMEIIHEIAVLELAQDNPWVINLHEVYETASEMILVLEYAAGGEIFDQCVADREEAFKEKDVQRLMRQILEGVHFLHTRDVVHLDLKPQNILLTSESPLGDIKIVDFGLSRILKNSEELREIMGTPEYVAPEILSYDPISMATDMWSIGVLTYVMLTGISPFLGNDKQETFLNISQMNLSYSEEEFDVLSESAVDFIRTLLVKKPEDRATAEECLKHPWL
Procedure: as §1, §2, §3, §4, §5, §6, §7, §8

First: Cc1cc(Br)ccc1CNC(=O)Nc1ccc2cc1OCCOCCNc1ccn3ncc-2c3n1 [compound 24]
Second: Cc1ccc(F)cc1CNC(=O)Nc1ccc2cc1OCCOCCNc1ccn3ncc-2c3n1 [compound 26]
The ΔTm at 10 µM of the first is lower: 2.3 °C for the first, 5.2 °C for the second.

In the case of `O=C(NCc1ccccc1C(F)(F)F)Nc1ccc2cc1OCCOCCNc1ccn3ncc-2c3n1` [compound 27], the ΔTm at 10 µM is reported as 4 °C.

biological target: T9, BMX (BMXA) (Homo sapiens, UniProt P51813); test: DSF Tm panel; assay type: binding; details: 10 μM compound
T9 construct: purchased in-house DSF kinase panel (SGC-style construct names; the trailing letter is the construct ID)
Procedure: as §1, §2, §3, §4, §5, §6, §7, §8

T9 sequence (P51813 411-675): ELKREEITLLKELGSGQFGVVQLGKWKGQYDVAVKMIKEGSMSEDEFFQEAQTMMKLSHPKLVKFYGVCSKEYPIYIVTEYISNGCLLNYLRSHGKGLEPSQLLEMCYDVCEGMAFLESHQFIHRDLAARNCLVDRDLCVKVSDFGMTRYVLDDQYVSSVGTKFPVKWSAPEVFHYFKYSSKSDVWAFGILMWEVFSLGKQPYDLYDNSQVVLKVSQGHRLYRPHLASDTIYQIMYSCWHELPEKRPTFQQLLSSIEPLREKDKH

Going from `Cc1cc(Br)ccc1CNC(=O)Nc1ccc2cc1OCCOCCNc1ccn3ncc-2c3n1` [compound 24] to `Cc1ccc(F)cc1CNC(=O)Nc1ccc2cc1OCCOCCNc1ccn3ncc-2c3n1` [compound 26], the ΔTm at 10 µM falls from 1.8 °C to 0.3 °C.

In the case of `O=C(NCc1ccccc1C(F)(F)F)Nc1ccc2cc1OCCOCCNc1ccn3ncc-2c3n1` [compound 27], the ΔTm at 10 µM is reported as 3 °C.

biological target: T10, PIM3A (Homo sapiens, UniProt Q86V86); test: DSF Tm panel; assay type: binding; details: 10 μM compound
T10 construct: purchased in-house DSF kinase panel (SGC-style construct names; the trailing letter is the construct ID)
Procedure: as §1, §2, §3, §4, §5, §6, §7, §8

First: Cc1cc(Br)ccc1CNC(=O)Nc1ccc2cc1OCCOCCNc1ccn3ncc-2c3n1 [compound 24]
Second: Cc1ccc(F)cc1CNC(=O)Nc1ccc2cc1OCCOCCNc1ccn3ncc-2c3n1 [compound 26]
The ΔTm at 10 µM of the first is lower: 2.8 °C for the first, 4 °C for the second.

With `O=C(NCc1ccccc1C(F)(F)F)Nc1ccc2cc1OCCOCCNc1ccn3ncc-2c3n1` [compound 27] the ΔTm at 10 µM was 4.6 °C.

biological target: T11, FGFR1B (Homo sapiens, UniProt P11362); test: DSF Tm panel; assay type: binding; details: 10 μM compound
T11 construct: purchased in-house DSF kinase panel (SGC-style construct names; the trailing letter is the construct ID)
Procedure: as §1, §2, §3, §4, §5, §6, §7, §8

T11 sequence (P11362 456-767): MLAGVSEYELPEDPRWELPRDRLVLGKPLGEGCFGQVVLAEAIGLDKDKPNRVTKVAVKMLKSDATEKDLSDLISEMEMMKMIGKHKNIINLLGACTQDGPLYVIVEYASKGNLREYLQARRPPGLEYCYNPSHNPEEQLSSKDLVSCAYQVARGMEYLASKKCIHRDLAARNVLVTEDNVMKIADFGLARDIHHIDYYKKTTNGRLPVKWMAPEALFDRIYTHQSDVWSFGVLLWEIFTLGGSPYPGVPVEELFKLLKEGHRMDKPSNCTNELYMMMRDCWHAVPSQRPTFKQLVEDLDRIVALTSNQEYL

Compared with `Cc1cc(Br)ccc1CNC(=O)Nc1ccc2cc1OCCOCCNc1ccn3ncc-2c3n1` [compound 24], `Cc1ccc(F)cc1CNC(=O)Nc1ccc2cc1OCCOCCNc1ccn3ncc-2c3n1` [compound 26] is higher in ΔTm at 10 µM: 1.2 °C for the first, 1.9 °C for the second.

`O=C(NCc1ccccc1C(F)(F)F)Nc1ccc2cc1OCCOCCNc1ccn3ncc-2c3n1` [compound 27] showed a ΔTm at 10 µM of 1.3 °C.

Source: PMC12621043, “Un-LOK-ing a New Approach for Conformational Selective Targeting of STK10 (LOK)” (ACS Medicinal Chemistry Letters, 2025)
